Experimental data reported in US7888394B2, “Synthesis, polymorphs, and pharmaceutical formulation of FAAH inhibitors” (N.V. Organon, priority 2006, dated 2011).

Assays:
[1] = Oral bioavailability determination of KDS-4103 polymorphs: plasma concentrations after oral administration of suspensions to rats; format: in vivo; conditions: for [KDS-4103] plasma concentration: oral gavage, 100 mg/mL suspension at 1 ml/kg
Procedure: Animals were sacrificed at 30, 60 and 90 minutes post-dose in each group. Collection of K3EDTA was acheived via cardiac puncture.

[2] = Particle size determination of KDS-4103 polymorphs (Malvern Mastersizer 2000 Hydro S, dispersed in hexane); format: physicochemical; conditions: 1 minute sonication (47 kHz), 10,000 sweeps
Procedure: “Effective particle size,” as used herein refers to and is determined on the basis of the volume weight average particle size as measured by conventional particle size measuring techniques well known to those skilled in the art. Such techniques include, for example, sedimentation field flow fractionation, photon correlation spectroscopy, light scattering, laser diffraction and disc centrifugation. For the purposes of the compositions, formulations and methods described herein, effective particle size is the volume mass average particle size as determined using light scattering methods, e.g. Horiba LA-950. For example, an effective particle size of 5.9 μm means that 50% of the particles by weight are less than 5.9 μm and 50% of the particles by weight are greater than 5.9 μm.

[3] = Oral bioavailability determination of KDS-4103 polymorphs: plasma concentrations after oral administration of suspensions to rats; format: in vivo; conditions: oral gavage, 100 mg/mL suspension at 1 ml/kg
[4] = tested on: fatty acid amide hydrolase (FAAH); conditions: cited from earlier work

NC(=O)c1cccc(-c2cccc(OC(=O)NC3CCCCC3)c2)c1 [KDS-4103 polymorph from acetonitrile]
[KDS-4103] plasma concentration ([1]; time 30 minutes post-dose): 196.06 ng/mL | [KDS-4103] plasma concentration ([1]; time 60 minutes post-dose): 58.95 ng/mL | [KDS-4103] plasma concentration ([1]; time 90 minutes post-dose): 105.36 ng/mL | levels of the compound in circulation compared to the polymorph obtained from EtOH ([1]; oral suspension): increased levels of the compound in circulation | bioavailability of the suspension ([1]; oral suspension, compared to polymorph from ethanol): increased bioavailability | average effective average particle size ([2]; listed as KDS-4103 from acetonitrile): about 5.9 μm | concentration at 0 min ([3]; rat, plasma, po, 100 mg/kg, [KDS-4103] plasma concentration): 0 ng/mL

NC(=O)c1cccc(-c2cccc(OC(=O)NC3CCCCC3)c2)c1 [KDS-4103 polymorph from ethanol]
[KDS-4103] plasma concentration ([1]; time 30 minutes post-dose): 9.62 ng/mL | [KDS-4103] plasma concentration ([1]; time 60 minutes post-dose): 12.60 ng/mL | [KDS-4103] plasma concentration ([1]; time 90 minutes post-dose): 10.74 ng/mL | average effective average particle size ([2]; listed as KDS-4103 from ethanol): about 13.9 μm | [KDS-4103] plasma concentration ([3]; time 0 minutes): 0.00 ng/mL

NC(=O)c1cccc(-c2cccc(OC(=O)NC3CCCCC3)c2)c1 [KDS-4103]
inhibition of FAAH activity [4]: potent and selective inhibitor of FAAH activity
